Experimental data: US20090162447A1, “Spherically Shaped Substances” (priority 2005, published 2009)
Values joined by “and” are separate entries in the source; they are usually repeats but may differ in a detail not shown here. Identical values can stand only once. Counter-ions that a name gives are not always drawn.

Assays:
Format in all cases: physicochemical
[1] = Angle of repose test on tilted smooth tile; conditions: tile tilted 1° at a time; angle at which first particles slide
From the text: Another definition of the angle of repose is the maximum angle of tilt of a bed of the powder beyond which the powder cannot retain a static pose. To measure the angle of repose according to this definition, the powder of the present embodiments can be placed on a smooth solid bed surface. The bed surface can then be tilted very slowly about the horizontal axis to a maximum angle without the particles sliding. When the bed surface is tilted beyond the maximum angle, sliding occurs, and the angle of the bed surface to the horizontal once the particles begin sliding is defined as the angle of repose. An angle of repose measured by this technique is oftentimes referred to as tilting angle of repose.
The diltiazem hydrochloride particles were subjected to an angle of repose test. The particles were placed on a smooth tile positioned horizontally. The tile was tilted slowly each time at 1° about the horizontal axis. The angle of repose was defined as the angle at which the first particles had slide.

[2] = Surface smoothness from particle images (Scanning Electron Microscopy); conditions: as shown in images of the particles
Protocol: An additional estimate of the particles' smoothness was performed by analyzing the samples via Scanning Electron Microscopy (SEM). FIGS. 9A-C are images of the raw sucrose particles (FIG. 9A), sucrose particles of the present embodiments (FIG. 9B) and the prior art particles (FIG. 9C).

[3] = Shape factor and aspect ratio by DSA-10 image analyzer; conditions: samples (i)-(iii); for shape factor: 4πA/P^2 by DSA-10 during constant flow of slurry; for aspect ratio: minimal Feret / maximal Feret
Protocol: The sphericity of the particles was also measured using a DSA-10 image analyzer (Ankersmid Ltd., Israel). The analysis was performed during constant flow of slurry containing the particles. Images of about 1000 particles were analyzed by the image analyzer to determine the sphericity of the particles. In these measurements the sphericity was also as defined 4πA/P^2. To distinguish between the sphericity values obtained as determined using the image processing software and the sphericity values obtained using the image analyzer, the latter are referred to below as “shape factor”.
Beside sphericity, the DSA-10 image analyzer was used to characterize the shape of the particles by their aspect ratio, defined as the ratio between the minimal Feret and the maximal Feret of the particles.

[4] = Sphericity by optical microscope images and image processing software (Buehler Omnimet)
Protocol: Thus, denoting the area of the image by A and the perimeter of the image by P, the sphericity, s, can be defined as s=4πA/P^2. As will be appreciated by one of ordinary skill in the art, when the image is a perfect circle, A=π(P/2π)^2=P^2/4π and s=1. When the area of the image is 0 (i.e., the image is a line or a curve) s=0. The samples were imaged through a transmission optical microscope (magnification: ×12.5). The images were analyzed by image processing software (Buehler Omnimet®). Each image processing comprised the following steps. In a first step the particles were delineated for 1 cycle; in a second step, dark areas were defined by thresholding; in a third step, the dark areas were filled; in a fourth step, particles smaller than 20×20 pixels were eliminated; in a fifth step border particles were eliminated; and in a sixth step the delineation of the non-eliminated particles were processed by the octagonal kernel of the software for 3 cycles. FIG. 19 is an image showing the raw sucrose particles after image processing. Following image processing the area, A, and perimeter, P, of each particle was measured from the images. The sphericity of each particle was defined as 4πA/P^2.

[5] = Flow rate test with Hall flow meter; conditions: 5 millimeter diameter nozzle tilted at an angle of 30°
From the text: The flowability of the powder of the present embodiments can also be characterized by its flow rate at certain conditions. The flowability can be measured using a suitable flow meter, such as, but not limited to, a Hall flow meter. Thus, according to a preferred embodiment of the present invention the powder of the preset embodiments is capable of maintaining a flow rate of at least 6, more preferably at least 8, more preferably at least 10 gram per square centimeter per second, through a 5 millimeters nozzle tilted at an angle of 30°.
The metformin particles were subjected to a flow rate test using a Hall flow meter having a 5 millimeter diameter nozzle. The nozzle was tilted at an angle of 30°.

[6] = Ratio of optical surface area to BET surface area / rugosity
From the text: In an additional embodiment, the smoothness is defined by a ratio between an optical surface area of the particle and a BET surface area thereof.
An optical surface area of the particle is the surface area of the particle as measured optically. Such measurement can be performed, for example, by obtaining an image of the particle using an optical microscope and estimating its surface area, by approximating the shape of the particle to a symmetrical shape. For example, when the shape of the particle is similar to a sphere, its optical surface area can be approximated by 4πR^2, where R is the radius of the particle, as measured from the image. When the shape of the particle is similar to a spheroid, having a long axis a and an aspect ratio of ε, its surface area can be approximated by 2πa^2 ε (ε+t/b), where b is given by b^2=1−ε^2, and t (in radians) is given by sin(t)=b. As will be appreciated by one ordinarily skilled in the art the aspect ratio can also be approximated as the square root of the sphericity defined above.
A BET surface of the particle refers to a surface measured using a method developed by Brunauer, Emmett and Teller and commonly referred to as BET method. According to the BET method, the surface area is determined by allowing the surface to interact with nitrogen molecules and analyzing the corresponding adsorption curves. […]

[7] = BET specific surface area measurement (TriStar 3000 analyzer)
Protocol: A BET surface of the particle refers to a surface measured using a method developed by Brunauer, Emmett and Teller and commonly referred to as BET method. According to the BET method, the surface area is determined by allowing the surface to interact with nitrogen molecules and analyzing the corresponding adsorption curves. The BET method is well known in the art and is found in many publications (to this end see, e.g., S. J. Gregg and K. S. Sing, “Adsorption, Surface Area and Porosity”, Academic Press, London, 1995).
Following drying, a sample of the formed sucrose particles was subjected to BET measurement using a TriStar 3000 analyzer (Micromeritics, Georgia, USA), to obtain a specific surface area for the particles (surface area per unit mass). An averaged value of 0.03 m^2/gr was measured. For comparison, the specific surface area of a sample of prior art particles of similar size (355-500 micrometer Suglets®, purchased from NP Pharm, France), was also measured. The specific surface area of the particles of this sample was 0.27 m^2/gr. Thus, the sucrose particles produced according to the teaching of the present embodiments of the invention are characterized by a specific surface area which is about 9 times smaller than the specific surface area characterizing the prior art. As the average size of the samples was similar, the specific surface was used as a measure of the smoothness of the particles.

[8] = Table 2, samples (i)-(iii), hydrochloride
[9] = 4πA/P^2, Table 1, magnification ×12.5

Row | shape factor ([3]; hydrochloride) | aspect ratio ([3]; hydrochloride) | sphericity [4, 8] | shape factor [3] | aspect ratio [3] | sphericity ([4]; Table 2, samples (i)-(iii)) | SMILES | further results
1 |  |  |  |  |  |  | COc1ccc([C@@H]2Sc3ccccc3N(CCN(C)C)C(=O)[C@@H]2OC(C)=O)cc1 [diltiazem hydrochloride] | angle of repose [1]: 38 °; surface of the particles (image) [2]: substantially smooth
2 | 0.7032 and 0.7056 and 0.6847 | 0.5416 and 0.5442 and 0.5293 | 0.5278 and 0.4773 and 0.4954 |  |  |  | COc1ccc([C@@H]2Sc3ccccc3N(CCN(C)C)C(=O)[C@@H]2OC(C)=O)cc1.Cl [raw dilitiazem hydrochloride, diltiazem hydrochloride, reference compound] | angle of repose [1]: 48 °
3 |  |  |  | 0.8244 and 0.8214 and 0.8404 | 0.6900 and 0.6434 and 0.6420 | 0.6146 and 0.5675 and 0.5720 | CN(C)C(=N)N=C(N)N [raw metformin, metformin, reference compound] | flow rate ([5]; listed as raw metformin particles): no flow was observed
4 |  |  |  | 0.7789 and 0.7908 and 0.7886 | 0.6102 and 0.6062 and 0.6221 | 0.4997 and 0.4760 and 0.4144 | NC(=O)N1c2ccccc2CC(=O)c2ccccc21 [raw oxcarbazepine, oxcarbazepine, reference compound] | 
5 |  |  |  |  |  |  | OC[C@H]1O[C@@](CO)(O[C@H]2O[C@H](CO)[C@@H](O)[C@H](O)[C@H]2O)[C@@H](O)[C@@H]1O [raw sucrose, sucrose, reference compound] | sphericity [4, 9]: 0.773 ± 0.05
6 |  |  |  |  |  |  | OC[C@H]1O[C@@](CO)(O[C@H]2O[C@H](CO)[C@@H](O)[C@H](O)[C@H]2O)[C@@H](O)[C@@H]1O [rounded 300-600 μm sucrose, sucrose] | rugosity ([6]; corresponds to optical/BET surface area ratio): 1.5-3; optical specific surface area ([6]; spherical or spherical-like particle, diameter about 400 micrometer): 0.01 to 0.02 m²/g; specific surface area (surface area per unit mass), BET ([7]; dried powder sample, averaged value): 0.03 m^2/gr; BET specific surface ([7]; particles whose average diameter is about 400 micrometer): about 0.03 gr/m^2; specific surface area, times smaller than prior art ([7]; versus 355-500 micrometer Suglets of similar size): about 9 times; sphericity [4, 9]: 0.875 ± 0.027; surface of the particles (image) [2]: substantially smooth
7 | 0.8426 and 0.8168 and 0.8467 | 0.6915 and 0.6935 and 0.6947 | 0.5106 and 0.5220 and 0.5139 |  |  |  | COc1ccc([C@@H]2Sc3ccccc3N(CCN(C)C)C(=O)[C@@H]2OC(C)=O)cc1.Cl [rounded dilitiazem hydrochloride 20-45 μm] [diltiazem hydrochloride] | 
8 | 0.8229 and 0.8211 and 0.8368 | 0.7015 and 0.6986 and 0.7053 | 0.6572 and 0.6601 and 0.6940 |  |  |  | COc1ccc([C@@H]2Sc3ccccc3N(CCN(C)C)C(=O)[C@@H]2OC(C)=O)cc1.Cl [rounded dilitiazem hydrochloride above 45 μm] [diltiazem hydrochloride] | 
9 | 0.8383 and 0.8419 and 0.8279 | 0.6828 and 0.6923 and 0.6731 | 0.5315 and 0.6004 and 0.5942 |  |  |  | COc1ccc([C@@H]2Sc3ccccc3N(CCN(C)C)C(=O)[C@@H]2OC(C)=O)cc1.Cl [rounded dilitiazem hydrochloride mix 20-45 μm + 45 μm] [diltiazem hydrochloride] | 
10 |  |  |  | 0.8719 and 0.8739 and 0.8843 | 0.6791 and 0.6740 and 0.6904 | 0.7634 and 0.7676 and 0.7344 | CN(C)C(=N)N=C(N)N [rounded metformin, metformin] | flow rate ([5]; listed as rounded metformin particles): 10.2 gr/(cm^2×s); surface of the particles (image) [2]: substantially smooth
11 |  |  |  | 0.8138 and 0.7996 and 0.8174 | 0.5875 and 0.5887 and 0.5829 | 0.6103 and 0.5707 and 0.4969 | NC(=O)N1c2ccccc2CC(=O)c2ccccc21 [rounded oxcarbazepine, oxcarbazepine] | 
